Laboratory results taken from ChEMBL document CHEMBL1201862, “PubChem BioAssay data set” (2004).
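Protocol summary: plate cells (96-well), add compound at 5 concentrations, incubate 48 h, interpolate endpoints linearly. At the GI50, growth is halved.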 Calls of active or inactive are those of the source. Rule as the data show it: active = GI50 up to about 1.1 µM and inactive = higher. Where a SMILES comes first, the peptide text is derived from it. [ ]: non-standard residue; d: D form. The star is where a group is joined. ξ: configuration not given here. ξF = NC(Cc1ccccc1)C(=O)O; Cbz = O=C(OCc1ccccc1)*; Aib = CC(C)(N)C(=O)O; NHNH2 = NN*

Key:
Test in all cases: NCI-60 cell line screen, 48 h
[1] = test system: NCI-H226
[2] = test system: MOLT-4
[3] = test system: Malme-3M
[4] = test system: ACHN
[5] = test system: UO-31
[6] = test system: NCI-H23
[7] = test system: HL-60
[8] = test system: LOX IMVI
[9] = test system: SF-268
[10] = test system: Hs-578T
[11] = test system: PC-3
[12] = test system: HT-29
[13] = test system: UACC-257
[14] = test system: OVCAR-5
[15] = test system: A549
[16] = test system: HCT-116
[17] = test system: MDA-MB-435
[18] = test system: T47D
[19] = test system: RXF 393
[20] = test system: DU-145

Measured: GI50

c1ccc(C2=Nc3nc4ccccc4n3C(c3ccccc3)C2)cc1 (centres undefined)
inactive: [1] > 100 µM | [2] > 100 µM | [3] > 100 µM | [4] > 100 µM | [5] > 100 µM | [6] > 100 µM | [7] > 100 µM | [8] > 100 µM | [9] > 100 µM | [10] 45.5 µM | [11] > 100 µM | [12] > 100 µM | [13] > 100 µM | [14] > 100 µM | [15] > 100 µM | [16] > 100 µM | [17] 36 µM | [18] > 100 µM | [19] 41 µM

O=C(CCc1ccccc1)ON1C(=S)C(c2ccccc2)(c2ccccc2)N=C1Sc1ccccc1
inactive: [1] 45.3 µM | [2] 4 µM | [3] 48.1 µM | [4] 48.1 µM | [20] 58.2 µM | [5] 60.3 µM | [6] 34.4 µM | [7] 31.6 µM | [8] 5.52 µM | [9] 22.7 µM | [10] 38.7 µM | [11] 34.3 µM | [12] 24.5 µM | [13] > 100 µM | [14] > 100 µM | [15] 38.1 µM | [16] 19.3 µM | [18] 59.4 µM | [19] > 100 µM

NC1(CCNC(=O)c2ccccc2)CCN(C(=O)c2ccccc2)CC1
inactive: [1] > 100 µM | [2] > 100 µM | [3] 29.2 µM | [4] > 100 µM | [20] > 100 µM | [5] > 100 µM | [6] > 100 µM | [9] > 100 µM | [10] > 100 µM | [11] > 100 µM | [12] > 100 µM | [13] > 100 µM | [14] > 100 µM | [15] > 100 µM | [16] > 100 µM | [17] > 100 µM | [18] > 100 µM | [19] > 100 µM

CC(C)(NC(=O)OCc1ccccc1)C(=O)NC(Cc1ccccc1)C(=O)NN (centres undefined) (Cbz-[Aib]-[ξF]-NHNH2)
inactive: [1] > 100 µM | [2] > 100 µM | [3] > 100 µM | [4] > 100 µM | [20] > 100 µM | [5] > 100 µM | [6] > 100 µM | [8] > 100 µM | [9] > 100 µM | [10] > 100 µM | [11] > 100 µM | [12] > 100 µM | [13] > 100 µM | [14] > 100 µM | [15] > 100 µM | [17] > 100 µM | [18] > 100 µM | [19] > 100 µM

O=c1cc(CC(O)(C(F)(F)Cl)C(F)(F)Cl)[nH]n1-c1ccccc1
inactive: [1] 66.4 µM | [2] > 100 µM | [3] > 100 µM | [4] > 100 µM | [20] > 100 µM | [5] 78.9 µM | [6] > 100 µM | [7] > 100 µM | [8] > 100 µM | [9] > 100 µM | [10] 15 µM | [12] > 100 µM | [13] > 100 µM | [14] > 100 µM | [15] > 100 µM | [16] > 100 µM | [17] > 100 µM | [18] 52.6 µM | [19] > 100 µM

O=C1c2ccccc2C(=O)N1C1(C(=O)NC2(C(=O)O)CCCC2)CCCC1
inactive: [1] > 100 µM | [2] > 100 µM | [3] > 100 µM | [4] > 100 µM | [20] > 100 µM | [5] > 100 µM | [6] > 100 µM | [8] > 100 µM | [9] > 100 µM | [10] > 100 µM | [11] > 100 µM | [12] > 100 µM | [13] > 100 µM | [14] > 100 µM | [15] > 100 µM | [16] > 100 µM | [17] > 100 µM | [18] > 100 µM | [19] > 100 µM

O=Cc1c(-c2ccccc2)nc2ccccc2c1O
inactive: [1] > 100 µM | [2] 55.7 µM | [3] 54 µM | [4] > 100 µM | [20] > 100 µM | [5] 85.7 µM | [6] 75.7 µM | [8] 42.2 µM | [9] 59.3 µM | [10] 30.1 µM | [11] 36.5 µM | [12] 39.9 µM | [13] 72.8 µM | [14] > 100 µM | [15] 54 µM | [16] 41.9 µM | [17] 21.3 µM | [18] 64.6 µM

C1CNCCN2CCCNCCN(C1)CC2
inactive: [1] > 100 µM | [2] > 100 µM | [3] > 100 µM | [4] > 100 µM | [20] > 100 µM | [5] > 100 µM | [6] > 100 µM | [8] > 100 µM | [9] > 100 µM | [10] > 100 µM | [11] > 100 µM | [12] > 100 µM | [13] > 100 µM | [14] > 100 µM | [15] > 100 µM | [16] > 100 µM | [17] > 100 µM | [18] > 100 µM | [19] > 100 µM

O=C(/C=C/c1ccc(-c2ccccc2)cc1)NCc1ccc(C(=O)NCc2ccccc2)cc1
inactive: [1] > 100 µM | [3] > 100 µM | [4] > 100 µM | [20] > 100 µM | [5] > 100 µM | [6] 90.2 µM | [8] > 100 µM | [9] > 100 µM | [10] > 100 µM | [11] > 100 µM | [12] 71.1 µM | [13] > 100 µM | [14] > 100 µM | [15] > 100 µM | [16] > 100 µM | [17] > 100 µM | [18] > 100 µM | [19] 12.7 µM

COC(=O)c1cc(=O)n(-c2ccc3nn(C)nc3c2)cc1C(=O)OC
inactive: [1] > 100 µM | [2] > 100 µM | [3] > 100 µM | [4] > 100 µM | [20] > 100 µM | [5] > 100 µM | [6] > 100 µM | [9] > 100 µM | [10] > 100 µM | [11] > 100 µM | [12] > 100 µM | [13] > 100 µM | [14] > 100 µM | [15] > 100 µM | [16] > 100 µM | [17] > 100 µM | [18] > 100 µM | [19] > 100 µM

O=C(O)/C(=C\c1ccc(O)cc1)c1cccc2ccccc12
inactive: [1] > 100 µM | [2] > 100 µM | [3] > 100 µM | [4] > 100 µM | [20] > 100 µM | [5] > 100 µM | [6] > 100 µM | [8] > 100 µM | [9] > 100 µM | [10] > 100 µM | [11] > 100 µM | [12] > 100 µM | [13] > 100 µM | [14] > 100 µM | [15] > 100 µM | [16] > 100 µM | [17] > 100 µM | [18] > 100 µM | [19] > 100 µM
